Measurements from PubChem BioAssay (NCI).
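Method: 48-hour compound exposure of cells in 96-well plates, five concentrations, linear interpolation of endpoints. TGI denotes the concentration required for complete inhibition of growth.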

How the values were obtained:
Test in all cases: NCI tumour cell line growth inhibition, 48 h
[1] = system: 786-0 renal
[2] = system: A498 renal
[3] = system: A549 NSCLC
[4] = system: ACHN renal
[5] = system: CAKI-1 renal
[6] = system: CCRF-CEM leukemia
[7] = system: DLD-1 colon
[8] = system: EKVX NSCLC
[9] = system: HCC-2998 colon
[10] = system: HCT-116 colon
[11] = system: HCT-15 colon
[12] = system: HOP-18 NSCLC
[13] = system: HOP-62 NSCLC
[14] = system: HT29 colon
[15] = system: K-562 leukemia
[16] = system: KM12 colon
[17] = system: KM20L2 colon
[18] = system: LXFL 529 NSCLC
[19] = system: M14 melanoma
[20] = system: MALME-3M melanoma
[21] = system: MOLT-4 leukemia
[22] = system: NCI-H23 lung
[23] = system: NCI-H460 lung
[24] = system: NCI-H522 lung
[25] = system: OVCAR-3 ovarian
[26] = system: OVCAR-4 ovarian
[27] = system: OVCAR-5 ovarian
[28] = system: OVCAR-8 ovarian
[29] = system: RPMI-8226 leukemia
[30] = system: SF-268 CNS
[31] = system: SF-295 CNS
[32] = system: SF-539 CNS
[33] = system: SK-MEL-2 melanoma
[34] = system: SK-MEL-28 melanoma
[35] = system: SK-MEL-5 melanoma
[36] = system: SN12C renal
[37] = system: SNB-19 CNS
[38] = system: SNB-75 CNS
[39] = system: SNB-78 CNS
[40] = system: SW-620 colon
[41] = system: TK-10 renal
[42] = system: U251 CNS
[43] = system: UACC-257 melanoma
[44] = system: UO-31 renal
[45] = system: XF 498 CNS
[46] = system: DMS 114 small cell lung
[47] = system: DMS 273 small cell lung
[48] = system: HL-60(TB) leukemia
[49] = system: HOP-92 NSCLC
[50] = system: IGROV1 ovarian
[51] = system: LOX IMVI melanoma
[52] = system: M19-MEL melanoma
[53] = system: SK-OV-3 ovarian
[54] = system: SR leukemia
[55] = system: UACC-62 melanoma
[56] = system: COLO 205 colon
[57] = system: NCI-H226 lung
[58] = system: RXF 393 renal

COc1ccc(CCC2NCCc3cc(OC)c(OC)cc32)cc1 (stereo not drawn)
TGI [1]: > 100 µM | TGI [2]: > 100 µM | TGI [3]: > 100 µM | TGI [4]: > 100 µM | TGI [5]: > 100 µM | TGI [6]: > 100 µM | TGI [7]: > 100 µM | TGI [8]: > 100 µM | TGI [9]: > 100 µM | TGI [10]: > 100 µM | TGI [11]: > 100 µM | TGI [12]: > 100 µM | TGI [13]: > 100 µM | TGI [14]: > 100 µM | TGI [15]: > 100 µM | TGI [16]: > 100 µM | TGI [17]: > 100 µM | TGI [18]: > 100 µM | TGI [19]: > 100 µM | TGI [20]: > 100 µM | TGI [21]: > 100 µM | TGI [22]: > 100 µM | TGI [23]: > 100 µM | TGI [24]: > 100 µM | TGI [25]: > 100 µM | TGI [26]: > 100 µM | TGI [27]: > 100 µM | TGI [28]: > 100 µM | TGI [29]: > 100 µM | TGI [30]: > 100 µM | TGI [31]: > 100 µM | TGI [32]: > 100 µM | TGI [33]: > 100 µM | TGI [34]: > 100 µM | TGI [35]: > 100 µM | TGI [36]: > 100 µM | TGI [37]: > 100 µM | TGI [38]: > 100 µM | TGI [39]: > 100 µM | TGI [40]: > 100 µM | TGI [41]: > 100 µM | TGI [42]: > 100 µM | TGI [43]: > 100 µM | TGI [44]: > 100 µM | TGI [45]: > 100 µM

CC(C)(Oc1ccc(C(=O)c2ccc(Cl)cc2)cc1Cl)C(=O)N1CCN(c2ccccc2)CC1
TGI [1]: > 100 µM | TGI [2]: > 100 µM | TGI [3]: > 100 µM | TGI [6]: > 100 µM | TGI [7]: > 100 µM | TGI [46]: > 100 µM | TGI [47]: > 100 µM | TGI [8]: > 100 µM | TGI [10]: > 100 µM | TGI [11]: > 100 µM | TGI [48]: > 100 µM | TGI [12]: > 100 µM | TGI [13]: > 100 µM | TGI [49]: > 100 µM | TGI [14]: > 100 µM | TGI [50]: > 100 µM | TGI [15]: > 100 µM | TGI [16]: > 100 µM | TGI [17]: > 100 µM | TGI [51]: > 100 µM | TGI [18]: > 100 µM | TGI [19]: > 100 µM | TGI [52]: > 100 µM | TGI [20]: > 100 µM | TGI [21]: > 100 µM | TGI [22]: > 100 µM | TGI [23]: > 100 µM | TGI [24]: > 100 µM | TGI [25]: > 100 µM | TGI [27]: > 100 µM | TGI [28]: > 100 µM | TGI [29]: > 100 µM | TGI [30]: > 100 µM | TGI [31]: > 100 µM | TGI [32]: > 100 µM | TGI [33]: > 100 µM | TGI [34]: > 100 µM | TGI [35]: > 100 µM | TGI [53]: > 100 µM | TGI [37]: > 100 µM | TGI [39]: > 100 µM | TGI [54]: > 100 µM | TGI [40]: > 100 µM | TGI [41]: > 100 µM | TGI [42]: > 100 µM | TGI [43]: > 100 µM | TGI [55]: > 100 µM | TGI [44]: > 100 µM | TGI [45]: > 100 µM

Cc1ccc(N(C(=O)CC(=O)N2N=C(c3ccccc3)C(N=Nc3ccc([N+](=O)[O-])cc3)C2=O)C(=O)c2ccc(Cl)cc2)cc1 (stereo not drawn)
TGI [1]: 30.5 µM | TGI [2]: 36.9 µM | TGI [3]: > 51.8 µM | TGI [4]: > 100 µM | TGI [5]: > 76.8 µM | TGI [6]: > 30.9 µM | TGI [56]: 10.4 µM | TGI [7]: > 55.9 µM | TGI [46]: > 51.1 µM | TGI [47]: 20.3 µM | TGI [8]: > 100 µM | TGI [9]: > 100 µM | TGI [10]: 22.4 µM | TGI [11]: > 48.6 µM | TGI [48]: > 56.5 µM | TGI [12]: > 85.6 µM | TGI [13]: 29.8 µM | TGI [49]: 56.5 µM | TGI [14]: > 53 µM | TGI [50]: 45.9 µM | TGI [15]: > 71.3 µM | TGI [16]: > 78.9 µM | TGI [17]: > 100 µM | TGI [51]: 15.7 µM | TGI [18]: > 52.9 µM | TGI [19]: 18.4 µM | TGI [52]: > 53.9 µM | TGI [20]: > 100 µM | TGI [21]: > 100 µM | TGI [57]: > 94.8 µM | TGI [22]: 28.2 µM | TGI [23]: > 47.8 µM | TGI [24]: 9.76 µM | TGI [25]: > 91.6 µM | TGI [26]: > 100 µM | TGI [27]: > 45.3 µM | TGI [28]: 38.3 µM | TGI [29]: > 59.1 µM | TGI [58]: 10.9 µM | TGI [30]: 35.4 µM | TGI [31]: 25.6 µM | TGI [32]: 35.6 µM | TGI [33]: > 62.4 µM | TGI [34]: > 100 µM | TGI [35]: 84.8 µM | TGI [53]: 32.2 µM | TGI [36]: > 81.1 µM | TGI [37]: 60.1 µM | TGI [38]: 39.1 µM | TGI [39]: > 100 µM | TGI [54]: 23.1 µM | TGI [40]: > 59.6 µM | TGI [41]: > 51.4 µM | TGI [42]: 23.7 µM | TGI [43]: > 72.7 µM | TGI [55]: > 100 µM | TGI [44]: > 100 µM | TGI [45]: 52.2 µM

CN(Cc1ccccc1)C1(N(C)Cc2ccccc2)CC1
TGI [1]: > 100 µM | TGI [2]: > 100 µM | TGI [3]: > 100 µM | TGI [4]: > 100 µM | TGI [5]: > 100 µM | TGI [6]: > 100 µM | TGI [56]: > 100 µM | TGI [7]: > 100 µM | TGI [46]: > 100 µM | TGI [47]: > 100 µM | TGI [8]: > 100 µM | TGI [9]: > 100 µM | TGI [10]: > 100 µM | TGI [11]: > 100 µM | TGI [48]: > 100 µM | TGI [12]: > 100 µM | TGI [13]: > 100 µM | TGI [49]: > 100 µM | TGI [14]: > 100 µM | TGI [50]: > 100 µM | TGI [15]: > 100 µM | TGI [16]: > 100 µM | TGI [17]: > 100 µM | TGI [51]: > 100 µM | TGI [18]: > 100 µM | TGI [19]: > 100 µM | TGI [52]: > 100 µM | TGI [20]: > 100 µM | TGI [21]: > 100 µM | TGI [57]: > 100 µM | TGI [22]: > 100 µM | TGI [23]: > 100 µM | TGI [24]: > 100 µM | TGI [25]: > 100 µM | TGI [26]: > 100 µM | TGI [27]: > 100 µM | TGI [28]: > 100 µM | TGI [58]: > 100 µM | TGI [30]: > 100 µM | TGI [31]: > 100 µM | TGI [32]: > 100 µM | TGI [33]: > 100 µM | TGI [34]: > 100 µM | TGI [35]: > 100 µM | TGI [53]: > 100 µM | TGI [36]: > 100 µM | TGI [37]: > 100 µM | TGI [38]: > 100 µM | TGI [39]: > 100 µM | TGI [40]: > 100 µM | TGI [41]: > 100 µM | TGI [42]: > 100 µM | TGI [43]: > 100 µM | TGI [55]: > 100 µM | TGI [44]: > 100 µM | TGI [45]: > 100 µM
